Data set [1] is described as follows: Toxicity against human Leukocyte cells assessed as reduction in cell viability by trypan blue exclusion assay. The format is cell-based.
The nature of data set [2]: Genotoxicity in human Leukocyte cells assessed as induction of DNA single strand breaks by single gel electrophoresis based alkaline comet assay. It is filed as toxicity, cell-based.
Data set [3] concerns Candida tropicalis. Briefly: Antifungal activity against Candida tropicalis clinical isolates by broth microdilution method. The format is functional.
Data set [4] has as its system Trichosporon asahii. The data set is described as follows: Antifungal activity against Trichosporon asahii clinical isolates by broth microdilution method. The format is functional.
Data set [5] deals with Nakaseomyces glabratus. The data set is described as follows: Antifungal activity against Candida glabrata clinical isolates by broth microdilution method. The format is functional.
In data set [6] the test system is Candida parapsilosis. The data set is described as follows: Antifungal activity against Candida parapsilosis clinical isolates by broth microdilution method. As to conditions: Lodderomyces parapsilosis. The format is functional.
A short description of data set [7]: Toxicity against human Leukocyte cells assessed induction of structural damage by microscopy. It is filed as cell-based.
Data set [8] deals with Candida tropicalis. Briefly: Inhibition of ergosterol biosynthesis in Candida tropicalis clinical isolates assessed as reduction in mean cellular ergosterol content by spectrophotometry. The format is functional.
For data set [9], the system named is Candida parapsilosis. Briefly: Inhibition of ergosterol biosynthesis in Candida parapsilosis clinical isolates assessed as reduction in mean cellular ergosterol content by spectrophotometry. The format is functional.
Data set [10] has as its system Nakaseomyces glabratus. Briefly: Inhibition of ergosterol biosynthesis in Candida glabrata clinical isolates assessed as reduction in mean cellular ergosterol content by spectrophotometry. The format is functional.
Data set [11] concerns Trichosporon asahii. Briefly: Inhibition of ergosterol biosynthesis in Trichosporon asahii clinical isolates assessed as reduction in mean cellular ergosterol content by spectrophotometry. It is filed as functional.

Converted amounts (≈) assume the structure as drawn.

For the compound `CCCCCCCCCCn1cc[n+](C)c1.[Cl-]`, the Activity result in data set [1], in data set [2] and in data set [7] was “Non-toxic” in each case. Further, the minimal inhibitory concentration (MIC) against Candida tropicalis [3] is 0.9 µg/mL; with Trichosporon asahii [4], 7.8 µg/mL; with Nakaseomyces glabratus [5] it was 7.8 µg/mL; against Candida parapsilosis [6], 1.9 µg/mL. The MIC50 came out at 1.9 µg/mL against Candida tropicalis [3], 31.2 µg/mL in the data set with Trichosporon asahii [4], 15.6 µg/mL with Nakaseomyces glabratus [5] and 7.8 µg/mL against Candida parapsilosis [6].

For `CCCCCCCCCCCCCCCCn1cc[n+](C)c1.F[P-](F)(F)(F)(F)F`, the Activity result in [1], in data set [2] and in [7] was “Non-toxic” throughout. In addition, the MIC is 0.9 µg/mL in the data set with Candida tropicalis [3], 15.6 µg/mL in the data set on Trichosporon asahii [4], 1.9 µg/mL against Nakaseomyces glabratus [5] and 0.9 µg/mL against Candida parapsilosis [6]. Further, the MIC50 in the data set on Candida tropicalis [3] turned out to be 1.9 µg/mL; against Trichosporon asahii [4] it was 15.6 µg/mL; against Nakaseomyces glabratus [5] it was 3.9 µg/mL; against Candida parapsilosis [6], 7.8 µg/mL.

For `CCCCCCCCCCn1cc[n+](C)c1.CS(=O)(=O)[O-]`, the Activity result in [1], in data set [2] and in data set [7] was “Non-toxic” throughout. Also, the MIC with Candida tropicalis [3] came to 1.9 µg/mL; in the data set on Trichosporon asahii [4], 31.2 µg/mL; with Nakaseomyces glabratus [5], 15.6 µg/mL; against Candida parapsilosis [6] it was 1.9 µg/mL. In addition, the MIC50 in the data set on Candida tropicalis [3] stood at 1.9 µg/mL; against Trichosporon asahii [4] it was 62.5 µg/mL; with Nakaseomyces glabratus [5], 31.2 µg/mL; against Candida parapsilosis [6], 7.8 µg/mL.

As to `CCCCCCCCCCCCCCCCn1cc[n+](C)c1.F[B-](F)(F)F`, the “inhibition (INH)” value in the data set on Candida tropicalis [8], in the data set on Candida parapsilosis [9], in the data set with Nakaseomyces glabratus [10] and in the data set with Trichosporon asahii [11] was 33% throughout. In addition, the Activity entry in data set [1], in data set [2] and in data set [7] was “Non-toxic” throughout. Further, the MIC against Candida tropicalis [3] stood at 0.9 µg/mL; with Trichosporon asahii [4] it was 1.95 µg/mL; against Nakaseomyces glabratus [5], 0.9 µg/mL; against Candida parapsilosis [6] it was 0.4 µg/mL. The MIC50 amounted to 0.9 µg/mL against Candida tropicalis [3], 3.9 µg/mL with Trichosporon asahii [4], 0.9 µg/mL with Nakaseomyces glabratus [5] and 3.9 µg/mL in the data set with Candida parapsilosis [6].

As for `CCCCCCCCCCCCCCn1cc[n+](C)c1.O=S(=O)([N-]S(=O)(=O)C(F)(F)F)C(F)(F)F`, the Activity result in data set [1], in [2] and in data set [7] was “Non-toxic” throughout. Further, the MIC with Candida tropicalis [3] amounted to 0.9 µg/mL; with Trichosporon asahii [4], 31.2 µg/mL; with Nakaseomyces glabratus [5], 3.9 µg/mL; in the data set with Candida parapsilosis [6], 0.9 µg/mL. The MIC50 came out at 0.9 µg/mL against Candida tropicalis [3], 62.5 µg/mL with Trichosporon asahii [4], 15.6 µg/mL against Nakaseomyces glabratus [5] and 0.9 µg/mL against Candida parapsilosis [6].

On to `CCCCCCCCCCCCCCCCn1cc[n+](C)c1.[Cl-]`, for which the Activity entry in data set [1], in data set [2] and in data set [7] was “Non-toxic” each time. Further, the MIC in the data set with Candida tropicalis [3], in the data set on Trichosporon asahii [4], with Nakaseomyces glabratus [5] and with Candida parapsilosis [6] was 0.9 µg/mL in each case. The MIC50 against Candida tropicalis [3], in the data set on Trichosporon asahii [4], in the data set on Nakaseomyces glabratus [5] and with Candida parapsilosis [6] was 0.9 µg/mL each time.

For the compound `OC(Cn1cncn1)(Cn1cncn1)c1ccc(F)cc1F` [FLUCONAZOLE], the MIC in the data set on Candida tropicalis [3] turned out to be 2 µg/mL (≈ 6.53 µM); in the data set on Trichosporon asahii [4], 4 µg/mL (≈ 13.1 µM); against Nakaseomyces glabratus [5], 4 µg/mL (≈ 13.1 µM); in the data set on Candida parapsilosis [6], 1 µg/mL (≈ 3.27 µM). Further, the MIC50 in the data set with Candida tropicalis [3] was found to be 8 µg/mL (≈ 26.1 µM); against Trichosporon asahii [4], 8 µg/mL (≈ 26.1 µM); with Nakaseomyces glabratus [5], 8 µg/mL (≈ 26.1 µM); against Candida parapsilosis [6], 1 µg/mL (≈ 3.27 µM).

In the case of `CC(=O)N1CCN(c2ccc(OCC3COC(Cn4ccnc4)(c4ccc(Cl)cc4Cl)O3)cc2)CC1` (stereo unspecified) [KETOCONAZOLE], the MIC in the data set with Candida tropicalis [3] was found to be 0.25 µg/mL (≈ 0.47 µM); in the data set with Trichosporon asahii [4], 0.25 µg/mL (≈ 0.47 µM); in the data set with Nakaseomyces glabratus [5], 0.5 µg/mL (≈ 0.941 µM); with Candida parapsilosis [6], 0.125 µg/mL (≈ 0.235 µM). The MIC50 came out at 4 µg/mL (≈ 7.53 µM) with Candida tropicalis [3], 4 µg/mL (≈ 7.53 µM) with Trichosporon asahii [4], 4 µg/mL (≈ 7.53 µM) against Nakaseomyces glabratus [5] and 1 µg/mL (≈ 1.88 µM) against Candida parapsilosis [6].

The values above are taken from ChEMBL document CHEMBL3132794, “Imidazolium salts as antifungal agents: activity against emerging yeast pathogens, without human leukocyte toxicity” (Medchemcomm, 2013).
